Measurements reported in paper PMC8951016, “Computational Design and Biological Evaluation of Analogs of Lupin Peptide P5 Endowed with Dual PCSK9/HMG-CoAR Inhibiting Activity” (Pharmaceutics, 2022).

Tests used:
[1] = molecular target: T1, PCSK9-LDLR (Homo sapiens, UniProt Q8NBP7); settings: parent peptide; read-out: IC50, PCSK9-LDLR binding (P5); cited from earlier work
T1 construct: purchased CycLex Co., Nagano, Japan (CircuLex)

[2] = tested on: LDLR on HepG2 cell surface; assay: ICW, LDLR localized in cellular membranes of HepG2 (peptide alone); type: cell-based, human; settings: 50 µM, vs control, average ± SD, four independent experiments in duplicate
Description: For the experiments, a total of 3 × 10^4 HepG2 cells/well were seeded in 96-well plates and treated with 4.0 μg/mL PCSK9-WT and 4.0 μg/mL PCSK9 + peptides P5 and/or P5 analogs (50 µM) and vehicle (H2O) for 2 h at 37 °C under 5% CO2 atmosphere. Thus, cells underwent to ICW assay following conditions already optimized. See Supplementary Materials for detailed information. […]
cLex Co., Nagano, Japan). The peptides (P5, P5-Best, P-H6A, and P5-S7A) were synthe-sized by the company GeneScript (Piscataway, NJ, USA) at >95% purity. The antibody against HMG-CoAR was bought from Abcam (Cambridge, UK). […]
HMG-CoAR Aactivity Assay. […] Subsequently, the samples were mixed and the absorbance at 340 nm read by the microplate reader Synergy H1 (Winooski, VT, USA) at time 0 and 10 min. The HMG-CoAR-dependent oxidation of NADPH and the inhibition properties of peptides were measured by absorbance reduction, which is directly proportional to enzyme activ- […]
In Vitro PCSK9-LDLR Binding Assay. […] The reaction was stopped with 2.0 M sulfuric acid and the absorbance at 450nm was measured using the Synergy H1 fluorescent plate reader […]

[3] = tested on: human intestinal Caco-2 cells; settings: cited from earlier work
[4] = molecular target: T2, HMG-CoAR (catalytic domain) (Homo sapiens, UniProt P04035); settings: parent peptide; read-out: IC50, HMG-CoAR activity (P5); cited from earlier work
T2 construct: finally the HMG-CoAR (cata- lytic domain) (2 µL); purchased Sigma-Aldrich
T2 sequence (P04035 426-888 limits assumed): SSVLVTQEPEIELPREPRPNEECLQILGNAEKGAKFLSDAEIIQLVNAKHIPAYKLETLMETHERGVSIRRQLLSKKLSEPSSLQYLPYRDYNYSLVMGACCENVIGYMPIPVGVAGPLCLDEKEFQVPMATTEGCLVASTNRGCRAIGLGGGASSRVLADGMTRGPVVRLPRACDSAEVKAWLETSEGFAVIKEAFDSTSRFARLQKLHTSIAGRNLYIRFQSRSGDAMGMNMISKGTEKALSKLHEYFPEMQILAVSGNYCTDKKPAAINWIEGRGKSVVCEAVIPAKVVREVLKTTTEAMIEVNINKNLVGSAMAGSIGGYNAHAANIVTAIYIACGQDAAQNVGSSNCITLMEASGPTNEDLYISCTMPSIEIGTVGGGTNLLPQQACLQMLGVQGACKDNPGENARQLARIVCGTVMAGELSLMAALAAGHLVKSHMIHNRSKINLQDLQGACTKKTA

T1 sequence (Q8NBP7 153-692): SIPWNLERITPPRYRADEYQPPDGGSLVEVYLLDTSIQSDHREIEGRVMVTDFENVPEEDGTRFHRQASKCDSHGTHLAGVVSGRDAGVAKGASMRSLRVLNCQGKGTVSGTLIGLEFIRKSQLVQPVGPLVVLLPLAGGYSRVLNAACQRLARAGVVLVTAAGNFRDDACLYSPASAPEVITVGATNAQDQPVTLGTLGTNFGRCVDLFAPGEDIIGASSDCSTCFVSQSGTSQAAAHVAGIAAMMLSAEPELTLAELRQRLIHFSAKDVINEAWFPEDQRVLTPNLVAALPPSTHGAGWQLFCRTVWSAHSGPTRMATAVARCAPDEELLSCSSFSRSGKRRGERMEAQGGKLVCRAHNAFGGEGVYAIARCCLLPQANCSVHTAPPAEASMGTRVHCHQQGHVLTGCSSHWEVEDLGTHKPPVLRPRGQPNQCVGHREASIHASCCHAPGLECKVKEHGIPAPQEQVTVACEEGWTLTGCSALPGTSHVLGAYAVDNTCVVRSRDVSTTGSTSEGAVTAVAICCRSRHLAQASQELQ
T1 sequence (Q8NBP7 31-152 partner limits assumed): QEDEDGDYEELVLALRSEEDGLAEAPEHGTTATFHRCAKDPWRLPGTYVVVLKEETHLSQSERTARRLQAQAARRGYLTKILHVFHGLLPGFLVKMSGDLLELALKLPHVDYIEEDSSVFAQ

Sequence: LILPKHSDAD [Peptide P5, natural peptide derived from a peptic lupin protein hydrolysate]
- IC50 [1]: 1.6 µM
- increase of LDLR level in cellular membranes of HepG2 [2]: 153.6 ± 16.4%
- metabolism during Caco-2 transport [3]: partially metabolized in a breakdown fragment (LPKHSDAD, P5-met)
- transport by differentiated Caco-2 cells [3]: successfully transported
- IC50 [4]: 147 µM
